Assays:
FGFR4 (h) = FGFR4 (h) (Homo sapiens, UniProt P22455); test: FGFR4 (enzymatic assay), TR-FRET; format: biochemical; conditions: FGFR 4 pIC50, enzymatic assay
KDR (h) = KDR (h) (Homo sapiens, UniProt P35968); test: KDR (VEGFR2) (enzymatic assay), TR-FRET; format: biochemical; conditions: read-out: VEGFR 2 (KDR) pIC50 (converted)
Outline: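 Read-out is TR-FRET (ex 340 nm, em 620 and 655 nm) in RFU, after an EDTA stop carrying Eu-labelled anti-phosphotyrosine and SA-XL-665 (60 min, RT). The preceding kinase reaction ran 120 min at RT with 150 ng/ml enzyme, 500 nM Btn-Flt3 and 3 μM ATP.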

[1] = system: Ba/F3-FGFR1-transfected cells; test: Ba/F3-FGFR1 (plus IL3) cellular proliferation assay, counterscreen with 10 ng/ml murine IL3; format: cell-based; conditions: plus IL3 (10 ng/ml murine IL3, counterscreen); read-out: BAF3-FGFR1 (PLUS IL3) pIC50 (converted)
Outline: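 Ba/F3-FGFR1 cells (20000/well) in RPMI-1640 with 10% FBS exposed to compound for 24 h at 37° C., 5% CO2, then Alamar Blue (resazurin) added for 4 h; fluorescence read at ex 540/em 590 nm. Counterscreen run identically with 10 ng/ml murine IL3.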

[2] = target: T1, Ba/F3-FGFR3-transfected cells (Homo sapiens, UniProt P22607); test: Ba/F3-FGFR3 (minus IL3) cellular proliferation assay, Alamar Blue; format: cell-based
T1 construct: BAF3-FGFR3 (MIN IL3) pIC50; other: minus IL3
T1 sequence (P22607 whole entry, change not shown): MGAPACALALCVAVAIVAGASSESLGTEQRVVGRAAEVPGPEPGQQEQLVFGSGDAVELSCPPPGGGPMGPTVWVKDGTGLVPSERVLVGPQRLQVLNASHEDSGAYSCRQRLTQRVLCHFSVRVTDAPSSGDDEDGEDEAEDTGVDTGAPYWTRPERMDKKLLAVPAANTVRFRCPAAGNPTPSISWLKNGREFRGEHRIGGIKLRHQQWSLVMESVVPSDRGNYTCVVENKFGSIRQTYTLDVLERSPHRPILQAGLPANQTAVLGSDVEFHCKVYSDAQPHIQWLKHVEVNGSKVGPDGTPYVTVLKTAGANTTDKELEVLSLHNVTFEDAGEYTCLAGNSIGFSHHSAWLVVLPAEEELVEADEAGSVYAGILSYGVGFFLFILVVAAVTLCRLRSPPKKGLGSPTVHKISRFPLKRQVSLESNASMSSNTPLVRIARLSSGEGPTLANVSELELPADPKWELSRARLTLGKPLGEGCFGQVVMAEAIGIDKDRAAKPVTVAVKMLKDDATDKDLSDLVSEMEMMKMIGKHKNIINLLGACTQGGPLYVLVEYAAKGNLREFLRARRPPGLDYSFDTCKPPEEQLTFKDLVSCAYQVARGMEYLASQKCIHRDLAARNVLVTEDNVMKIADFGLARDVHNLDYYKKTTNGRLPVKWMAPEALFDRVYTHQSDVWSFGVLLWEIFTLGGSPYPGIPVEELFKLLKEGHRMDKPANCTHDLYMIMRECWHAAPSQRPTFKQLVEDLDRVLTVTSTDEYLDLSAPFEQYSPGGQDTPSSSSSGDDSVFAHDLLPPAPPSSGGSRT
Outline: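 FGFR3-Ba/F3, 20000 cells/well, RPMI-1640 + 10% FBS, no phenol red; cpd in DMSO; 24 h, 37° C/5% CO2. Alamar Blue 4 h, RFU ex540/em590. Counterscreen: + murine IL3 10 ng/ml.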

Chain of FGFR4 (h) (P22455 22-802): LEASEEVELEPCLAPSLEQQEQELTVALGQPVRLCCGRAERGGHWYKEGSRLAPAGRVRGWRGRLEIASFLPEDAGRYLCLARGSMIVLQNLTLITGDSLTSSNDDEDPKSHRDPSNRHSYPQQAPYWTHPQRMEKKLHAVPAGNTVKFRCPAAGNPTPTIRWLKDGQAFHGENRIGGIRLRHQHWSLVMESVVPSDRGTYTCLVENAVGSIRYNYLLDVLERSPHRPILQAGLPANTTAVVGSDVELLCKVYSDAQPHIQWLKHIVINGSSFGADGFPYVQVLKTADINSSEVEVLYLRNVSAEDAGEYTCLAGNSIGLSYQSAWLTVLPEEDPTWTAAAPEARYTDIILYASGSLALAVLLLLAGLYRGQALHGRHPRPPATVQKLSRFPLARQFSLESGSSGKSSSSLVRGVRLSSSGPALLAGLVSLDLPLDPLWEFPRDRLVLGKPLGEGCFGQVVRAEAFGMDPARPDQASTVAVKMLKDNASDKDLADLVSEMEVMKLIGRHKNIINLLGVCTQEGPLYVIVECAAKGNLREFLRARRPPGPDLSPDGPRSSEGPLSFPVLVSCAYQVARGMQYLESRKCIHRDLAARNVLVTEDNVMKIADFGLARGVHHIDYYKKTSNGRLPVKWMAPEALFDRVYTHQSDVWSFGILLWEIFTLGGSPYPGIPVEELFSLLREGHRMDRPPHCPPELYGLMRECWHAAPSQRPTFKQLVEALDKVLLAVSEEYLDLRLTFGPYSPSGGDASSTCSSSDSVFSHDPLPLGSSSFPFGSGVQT
Chain of KDR (h) (P35968 20-1356): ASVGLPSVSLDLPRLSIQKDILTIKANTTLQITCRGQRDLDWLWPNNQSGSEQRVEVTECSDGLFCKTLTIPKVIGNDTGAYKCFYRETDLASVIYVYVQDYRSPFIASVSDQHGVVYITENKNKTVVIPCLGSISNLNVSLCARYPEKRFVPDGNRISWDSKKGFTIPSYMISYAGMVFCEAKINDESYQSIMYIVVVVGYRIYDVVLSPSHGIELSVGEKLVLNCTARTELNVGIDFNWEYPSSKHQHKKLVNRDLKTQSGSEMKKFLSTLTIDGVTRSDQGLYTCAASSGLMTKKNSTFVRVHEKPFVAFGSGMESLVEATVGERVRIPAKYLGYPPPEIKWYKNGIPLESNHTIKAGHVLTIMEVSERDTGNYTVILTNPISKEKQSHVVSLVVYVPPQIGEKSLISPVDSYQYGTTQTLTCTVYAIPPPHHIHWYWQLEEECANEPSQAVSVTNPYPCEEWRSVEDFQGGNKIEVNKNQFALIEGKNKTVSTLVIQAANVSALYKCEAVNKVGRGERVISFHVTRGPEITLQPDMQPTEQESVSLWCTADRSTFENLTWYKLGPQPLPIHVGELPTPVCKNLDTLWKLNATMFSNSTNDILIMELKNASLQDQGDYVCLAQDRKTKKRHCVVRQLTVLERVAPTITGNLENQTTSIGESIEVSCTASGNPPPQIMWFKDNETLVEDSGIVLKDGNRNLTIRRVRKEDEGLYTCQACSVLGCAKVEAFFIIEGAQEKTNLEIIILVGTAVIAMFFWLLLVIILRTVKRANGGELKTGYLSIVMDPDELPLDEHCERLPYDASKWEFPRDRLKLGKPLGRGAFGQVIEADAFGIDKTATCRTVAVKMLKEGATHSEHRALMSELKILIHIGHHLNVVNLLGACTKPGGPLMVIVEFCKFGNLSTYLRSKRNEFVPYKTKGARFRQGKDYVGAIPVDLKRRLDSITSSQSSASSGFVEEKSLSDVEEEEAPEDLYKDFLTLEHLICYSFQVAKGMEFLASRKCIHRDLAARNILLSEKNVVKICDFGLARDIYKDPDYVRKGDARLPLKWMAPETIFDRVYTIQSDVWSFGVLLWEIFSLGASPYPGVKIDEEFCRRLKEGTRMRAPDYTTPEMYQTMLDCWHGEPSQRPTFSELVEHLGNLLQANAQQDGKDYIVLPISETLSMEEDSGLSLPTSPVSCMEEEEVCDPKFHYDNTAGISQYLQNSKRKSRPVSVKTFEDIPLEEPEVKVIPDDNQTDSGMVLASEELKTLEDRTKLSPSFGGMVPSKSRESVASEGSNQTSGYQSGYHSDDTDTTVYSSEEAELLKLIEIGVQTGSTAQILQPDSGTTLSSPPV

Compound | IC50 (FGFR4 (h)) [nM] | IC50 (KDR (h)) [nM] | IC50 [1] [nM] | BAF3-FGFR3 (MIN IL3) pIC50 [2] | melting point [°C]
COCC(O)Cn1/c(=N/c2cc(OC)cc(OC)c2F)ccc2ncc(-c3cnn(C)c3)nc21 (single isomer, unassigned) [Compound 60] | 0.724 | 8.91 | > 10000 | 8.15 | 114
COc1cc(OC)c(F)c(N(CC(O)COC(C)C)c2ccc3ncc(-c4cnn(CC(O)COC(C)C)c4)nc3n2)c1 (single isomer, unassigned) [Compound 252] | 5.13 | 49 | > 10000 | 7.42 | 60
COc1cc(OC)c(F)c(N(C)c2ccc3ncc(-c4cnn(C)c4)nc3n2)c1F (single isomer, unassigned) [Compound 254] | 1 | 14.1 | > 10000 | 8.08 | 210
COc1cc(OC)c(F)c(/N=c2\ccc3ncc(-c4cnn(C)c4)nc3n2C)c1F (single isomer, unassigned) [Compound 255] | 0.513 | 3.09 | > 10000 | 8.38 | 199
COc1cc(OC)c(F)c(/N=c2\ccc3ncc(-c4cnn(C)c4)nc3n2CC2CC2)c1F (single isomer, unassigned) [Compound 267] | 1.48 | 12.6 | > 10000 | 8.16 | 195
COc1cc(OC)c(F)c(N(CC2CC2)c2ccc3ncc(-c4cnn(C)c4)nc3n2)c1F (single isomer, unassigned) [Compound 268] | 2.57 | 12 | > 10000 | 7.74 | –
COc1cc(OC)c(F)c(N(CC(O)c2cnn(C)c2)c2ccc3ncc(-c4cnn(C)c4)nc3n2)c1 (stereo not drawn) [Compound 244] | 16.2 | 129 | > 10000 | 6.73 | –
COc1cc(OC)c(F)c(N(CC(C)(C)O)c2ccc3ncc(-c4cnn(C)c4)nc3n2)c1 [Compound 245] | 15.8 | 60.3 | > 10000 | 7.07 | –
COc1cc(/N=c2\ccc3ncc(-c4cnn(C)c4)nc3n2CC(C)(C)O)c(F)c(OC)c1 [Compound 246] | 2.09 | 7.59 | > 10000 | 7.53 | –
COc1cc(/N=c2\ccc3ncc(-c4cnn(C)c4)nc3n2CC2CCC(=O)N2CCO)c(F)c(OC)c1 (stereo not drawn) [Compound 247] | 1.82 | 12 | > 10000 | ~7.7 | –
COc1cc(OC)c(F)c(N(CC(=O)NC(C)C)c2ccc3ncc(-c4cnn(C)c4)nc3n2)c1 [Compound 249] | 33.1 | 224 | > 10000 | 6.83 | –
COc1cc(OC)cc(N(CC(O)COC(C)C)c2ccc3ncc(-c4cnn(CC(O)COC(C)C)c4)nc3n2)c1 (stereo not drawn) [Compound 250] | 8.71 | 120 | > 10000 | ~7.09 | –
COc1cc(OC)cc(N(Cc2c[nH]nn2)c2ccc3ncc(-c4cnn(C)c4)nc3n2)c1 [Compound 251] | 2.69 | 26.3 | > 10000 | ~7.6 | –
COc1cc(OC)c(F)c(N(Cc2ncc[nH]2)c2ccc3ncc(-c4cnn(C5COC5)c4)nc3n2)c1 [Compound 253] | 1.91 | 12 | > 10000 | ~8.63 | –
CCn1/c(=N/c2c(F)c(OC)cc(OC)c2F)ccc2ncc(-c3cnn(C)c3)nc21 [Compound 257] | 0.457 | 3.16 | > 10000 | ~8.66 | –
COc1cc(OC)c(F)c(N(Cc2c[nH]nn2)c2ccc3ncc(-c4cnn(C)c4)nc3n2)c1 [Compound 258] | 1.32 | 12.3 | > 10000 | 7.91 | –
COc1cc(OC)c(F)c(N(Cc2ncc[nH]2)c2ccc3ncc(N4C[C@@H](C)N[C@@H](C)C4)nc3n2)c1 [Compound 259] | 28.2 | 309 | > 10000 | 7.18 | –
COc1cc(OC)c(F)c(N(CC(=O)N2CCNCC2)c2ccc3ncc(-c4cnn(C)c4)nc3n2)c1 [Compound 262] | 55 | 240 | > 10000 | ~6.17 | –
COc1cc(OC)c(F)c(N(Cc2ncc[nH]2)c2ccc3ncc(-c4cnn(CCS(C)(=O)=O)c4)nc3n2)c1 [Compound 264] | 1.38 | 9.33 | > 10000 | 8.09 | –

Compound | IC50 (FGFR4 (h)) [nM] | IC50 (KDR (h)) [nM] | IC50 [1] [nM] | BAF3-FGFR3 (MIN IL3) pIC50 [2] | melting point [°C]
COc1cc(OC)c(F)c(N(CC2CC(O)C(=O)N2)c2ccc3ncc(-c4cnn(C)c4)nc3n2)c1 (stereo not drawn) [Compound 269] | 3.09 | 74.1 | > 10000 | ~7.1 | –
COc1cc(/N=c2\ccc3ncc(-c4cnn(C)c4)nc3n2CC2CC(O)C(=O)N2)c(F)c(OC)c1 (stereo not drawn) [Compound 270] | 2.29 | 6.46 | > 10000 | 7.00 | –
COc1cc(OC)cc(N(CC2CC(O)C(=O)N2)c2ccc3ncc(-c4cnn(C)c4)nc3n2)c1 (stereo not drawn) [Compound 271] | 7.76 | 174 | > 10000 | 6.27 | –
COc1cc(/N=c2\ccc3ncc(-c4cnn(C)c4)nc3n2CC2CC(O)C(=O)N2)cc(OC)c1 (stereo not drawn) [Compound 272] | 5.25 | 10 | > 10000 | 6.73 | –
COc1cc(OC)c(C)c(N(Cc2ncc[nH]2)c2ccc3ncc(-c4cnn(C)c4)nc3n2)c1 [Compound 273] | 2.82 | 20.4 | > 10000 | ~8.60 | –
COc1cc(OC)cc(N(CC(C)(C)O)c2ccc3ncc(-c4cnn(C)c4)nc3n2)c1 [Compound 276] | 69.2 | 141 | > 10000 | 6.41 | –
COc1cc(/N=c2\ccc3ncc(-c4cnn(C)c4)nc3n2CC(C)(C)O)cc(OC)c1 [Compound 277] | 4.68 | 15.1 | > 10000 | 7.16 | –
COc1cc(OC)c(F)c(N(CC(C)(C)O)c2ccc3ncc(-c4cnn(C)c4)nc3n2)c1F [Compound 278] | 4.9 | 15.8 | > 10000 | 7.73 | –
COc1cc(OC)cc(N(c2ccc3ncc(-c4cnn(C)c4)nc3n2)C(C)c2ncc[nH]2)c1 (stereo not drawn) [Compound 280] | 2.34 | 31.6 | > 10000 | ~8.63 | –
COc1cc(OC)c(F)c(N(CC2CCC(=O)N2)c2ccc3ncc(-c4cnn(CC(C)(C)O)c4)nc3n2)c1 (stereo not drawn) [Compound 285] | 7.24 | 35.5 | > 10000 | 6.84 | –
COc1cc(/N=c2\ccc3ncc(-c4cnn(CC(C)(C)O)c4)nc3n2CC2CCC(=O)N2)c(F)c(OC)c1 (stereo not drawn) [Compound 286] | 3.89 | 11 | > 10000 | 7.66 | –
COc1cc(OC)c(F)c(N(c2ccc3ncc(-c4cnn(C)c4)nc3n2)C(C)c2ncc[nH]2)c1 (stereo not drawn) [Compound 287] | 2.14 | 17.4 | > 10000 | ~8.54 | –
COc1cc(OC)cc(N(CCNC2COC2)c2ccc3ncc(-c4cnn(C)c4)nc3n2)c1 [Compound 290] | 12.9 | 55 | > 10000 | 7.06 | –
COc1cc(OC)c(F)c(N(Cc2ncc[nH]2)c2ccc3ncc(N4CCOCC4)nc3n2)c1 [Compound 291] | 3.39 | 89.1 | > 10000 | 7.73 | –
COc1cc(OC)cc(N(Cc2ncc[nH]2)c2ccc3ncc(N4CCOCC4)nc3n2)c1 [Compound 293] | 4.79 | 234 | > 10000 | 7.59 | –
COc1cc(OC)c(F)c(N(Cc2ncc[nH]2)c2ccc3ncc(-c4cnn(CCCN)c4)nc3n2)c1 [Compound 295] | 2.4 | 9.33 | > 10000 | 8.17 | –
COc1cc(OC)c(F)c(N(Cc2noc(C)n2)c2ccc3ncc(-c4cnn(C)c4)nc3n2)c1 [Compound 297] | 3.02 | 16.2 | > 10000 | 7.69 | –
COc1cc(OC)c(F)c(N(CC2CCC(=O)N2)c2ccc3ncc(-c4cnn(C5CNC5)c4)nc3n2)c1 (stereo not drawn) [Compound 299] | 8.91 | 120 | > 10000 | 5.94 | –

Source: patent publication US9309242B2, “Substituted pyrido[2,3-b]pyrazines as FGFR kinase inhibitors” (priority 2011, dated 2016)
